Results reported in ChEMBL document CHEMBL1201862, “PubChem BioAssay data set” (2004).
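The compound was tested at five concentrations on cells cultured in 96-well plates, with a 48-hour exposure period. Here, GI50 denotes the concentration required for 50% inhibition of growth.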 Activity calls are given as the source filed them. Cut-off read from the data, not from the text of the source: active = GI50 up to about 1.1 µM and inactive = higher.

Legend:
Test in all cases: inhibition of tumour cell growth, NCI panel, 48 h
DLD-1 = tested on: DLD-1
DMS-114 = tested on: DMS-114
DMS-273 = tested on: DMS-273
KM-20L2 = tested on: KM-20L2
M19-MEL = tested on: M19-MEL
SNB-78 = tested on: SNB-78
XF498 = tested on: XF498
RXF 631 = tested on: RXF 631
HOP-18 = tested on: HOP-18

Compound | GI50 (DLD-1) | GI50 (DMS-114) | GI50 (DMS-273) | GI50 (KM-20L2) | GI50 (M19-MEL) | GI50 (SNB-78) | GI50 (XF498) | GI50 (RXF 631) | GI50 (HOP-18)
Cc1[nH]c2ccccc2c1C1CC(=O)NC1=O (stereo not drawn) | > 100 µM (inactive) | > 100 µM (inactive) | > 100 µM (inactive) | > 100 µM (inactive) | > 100 µM (inactive) | > 100 µM (inactive) | – | – | –
C=CCO[C@H]1CC[C@@]2(C)C(CC[C@]3(C)C2CC=C2[C@@H]4[C@@H](C)C(C)CC[C@]4(C(=O)O)CCC23C)C1(C)C (stereo partly drawn) | 17.3 µM (inactive) | 16.7 µM (inactive) | – | 17.3 µM (inactive) | 17.7 µM (inactive) | 17.6 µM (inactive) | 7.1 µM (inactive) | 13.7 µM (inactive) | 22 µM (inactive)
CCOc1ccccc1NC(=O)C(=O)c1c(O)c2ccc(O)cc2oc1=O | > 100 µM (inactive) | – | > 100 µM (inactive) | > 100 µM (inactive) | > 100 µM (inactive) | > 100 µM (inactive) | – | > 100 µM (inactive) | > 100 µM (inactive)
CCCC(C)n1c(C)nc2c1C(=O)c1ccccc1C2=O (stereo not drawn) | 8.43 µM (inactive) | – | 7.24 µM (inactive) | 18.9 µM (inactive) | 12.6 µM (inactive) | 21.9 µM (inactive) | 20.8 µM (inactive) | – | –
CC(C)(c1ccccc1)c1ccc(Oc2ccc3c(c2)-c2nc-3nc3[nH]c(nc4nc(nc5[nH]c(n2)c2ccc(Oc6ccc(C(C)(C)c7ccccc7)cc6)cc52)-c2cc(Oc5ccc(C(C)(C)c6ccccc6)cc5)ccc2-4)c2ccc(Oc4ccc(C(C)(C)c5ccccc5)cc4)cc32)cc1 | > 100 µM (inactive) | – | > 100 µM (inactive) | > 100 µM (inactive) | > 100 µM (inactive) | > 100 µM (inactive) | 78 µM (inactive) | > 100 µM (inactive) | –
COc1c2c(c(OC)c3c(=O)cc(C/C(=N/NC(=O)C[n+]4ccccc4)C(=O)Nc4cc(C)ccc4C)oc13)OCO2 | > 100 µM (inactive) | > 100 µM (inactive) | > 100 µM (inactive) | > 100 µM (inactive) | > 100 µM (inactive) | > 100 µM (inactive) | – | – | –
C/C(=C\c1ccccc1)C(O)S(=O)(=O)O (stereo not drawn) | > 100 µM (inactive) | > 100 µM (inactive) | > 100 µM (inactive) | > 100 µM (inactive) | > 100 µM (inactive) | – | – | – | > 100 µM (inactive)
O=C1c2nn(-c3ccccc3)nc2C(c2ccccc2)N1c1ccccc1 (stereo not drawn) | > 100 µM (inactive) | > 100 µM (inactive) | > 100 µM (inactive) | > 100 µM (inactive) | > 100 µM (inactive) | 28.1 µM (inactive) | > 100 µM (inactive) | – | > 100 µM (inactive)
COc1cc(OC)c2c(c1)C(=O)C(CC(C)O)=CC2=O (stereo not drawn) | 13.7 µM (inactive) | 3.08 µM (inactive) | 16.6 µM (inactive) | 17.2 µM (inactive) | 3.42 µM (inactive) | 15.3 µM (inactive) | 14 µM (inactive) | – | 16.7 µM (inactive)
CC1CN(c2ccc(Cl)cc2)CC(C)OC(=O)O1 (stereo not drawn) | > 100 µM (inactive) | > 100 µM (inactive) | > 100 µM (inactive) | > 100 µM (inactive) | > 100 µM (inactive) | > 100 µM (inactive) | > 100 µM (inactive) | – | –
CC(=O)Nc1ccc(-c2nnc(SCC(=O)Nc3ccc(Cl)cc3)o2)cc1 | 10.4 µM (inactive) | 1.85 µM (inactive) | 14.5 µM (inactive) | 16.4 µM (inactive) | 11.7 µM (inactive) | 46.2 µM (inactive) | – | – | 15 µM (inactive)
CN(C)/N=C(/c1nc2ccc([N+](=O)[O-])cc2nc1O)C(O)c1ccco1 (stereo not drawn) | 84.1 µM (inactive) | 16.4 µM (inactive) | 91 µM (inactive) | 21 µM (inactive) | > 100 µM (inactive) | > 100 µM (inactive) | > 100 µM (inactive) | – | –
CCOc1ccccc1NC(=O)C(C#N)C1=C(Cl)C(=O)c2ccccc2C1=O (stereo not drawn) | 1.85 µM (inactive) | 0.743 µM (active) | 1.88 µM (inactive) | 1.93 µM (inactive) | 0.177 µM (active) | 3.32 µM (inactive) | 2.29 µM (inactive) | 2.09 µM (inactive) | 1.5 µM (inactive)
O=C(/C=C/c1ccccc1O)c1ccccc1Cl | 50.1 µM (inactive) | 21.3 µM (inactive) | 40.2 µM (inactive) | > 100 µM (inactive) | 64.6 µM (inactive) | 47.2 µM (inactive) | 40.5 µM (inactive) | 52.7 µM (inactive) | 49.4 µM (inactive)
N[C@H](C(=O)O)[C@@H]1CC(Cl)=NO1 [ACIVICIN] | 1.23 µM (inactive) | 5.53 µM (inactive) | 2.33 µM (inactive) | 1.36 µM (inactive) | – | 4.25 µM (inactive) | 23.8 µM (inactive) | – | 37.9 µM (inactive)
